Laboratory results: patent US20230149507A1, “TREATMENT OF ALT CANCERS” (INSTITUTO DE MEDICINA MOLECULAR JOÃO LOBO ANTUNES, priority 2019, published 2023)

Assays:
Type in all cases: cell-based, human
U-2 OS cells [1] = assay: Metaphase-TIFs in cells overexpressing FANCM variants; conditions: stable overexpression
From the text: (§1) (a) Schematic of FANCM domain interactions, mutations or deletions. For clarity, domains have been color coded by functional role (bottom panel). (b) Quantitation of metaphase-TIFs in U-2 OS cells stably overexpressing wild-type (FANCM+) or FANCM mutants. Scatterplot bars represent the mean±SEM. Out of 3 experiments, n≥110 metaphases scored for each mutant, *p<0.05, **p<0.005, Mann-Whitney test. (c) Quantitation of fragile telomeres in U-2 OS cells stably overexpressing wild-type (FANCM+) or FANCM mutants. Scatterplot bars represent the mean±SEM. Out of 3 experiments, n>100 metaphases scored for each mutant, *p<0.05, **p<0.005, Mann-Whitney test. (d) Representative dot blots and quantitation of C-circle assays in U-2 OS cells stably overexpressing wild-type (FANCM+) or FANCM domain mutants. C-circles were normalized to the mean of vector control. Error bars represent mean±SEM from n=3 experiments, *p<0.05, **p<0.005, Student's t-test. (e) Single molecule analysis of telomeric extension events (top panel) and length of extension events (bottom panel) in U-2 OS cells stably overexpressing wild-type (FANCM+) or FANCM domain mutants. Error bars represent mean±SEM of n≥350 fibers out of 3 experiments, *p<0.05, **p<0.005, Student's t-test.
(§2) FIG. 23. Defects in ALT phenotype suppression are exacerbated by overexpression of a double-mutant (DM) FANCM, in which both the MM2 domain (FF>AA) and the translocase domain (K117R) of FANCM are mutated. (a) Representative dot blots and quantitation of C-circle assays in U-2 OS cells stably overexpressing wild-type (WT) or FANCM domain mutants (K117R, FF>AA; DM). C-circles were normalized to the mean of empty vector control (EV). Error bars represent mean±SEM from n=3 experiments, *p<0.05, **p<0.005, Student's t-test. (b) Quantitation of APB frequency in U-2 OS cells overexpressing wild-type (WT) or FANCM mutants. Scatterplot bars represent the mean±SEM. Out of three experiments, n=150 cells were scored for each mutant, **p<0.005, Mann-Whitney test. (c) Quantitation of metaphase-TIFs in U-2 OS cells stably overexpressing wild-type (WT) or FANCM mutants. Scatterplot bars represent the mean±SEM. Out of three experiments, n=120 metaphases scored for each mutant, *p<0.05, **p<0.005, Mann-Whitney test. All statistical comparisons are relative to EV control.
(§3) Empty vector and wild-type FANCM (pCMV6-Myc-DDK) constructs were obtained from Origene Technologies. Wild type FANCM (SEQ ID NO: 2) and FANCM mutants (SEQ ID NOs: 19 to 28) were cloned into the pLenti-C-Myc-DDK-IRES-Neo backbone (Origene Technologies) by restriction enzyme subcloning of gene blocks synthesized by Integrated DNA Technologies (IDT). Lentivirus was produced by the Vector and Genome Engineering Facility (Children's Medical Research Institute). For stable overexpression, cells were transduced with lentivirus, allowed to recover for 24 h, and subject to G418 selection. Cells were maintained in G418 to ensure sustained overexpression.
(§4) Indirect IF and telomere FISH were performed on both interphase nuclei and metaphase spreads. For interphase IF experiments, cells were grown on coverslips or LabTek chamber slides (Thermo Scientific). Slides were prepared as described in Sobinoff et al., 2017. Cells on coverslips were washed twice with PBS, permeabilized with KCM buffer (120 mM KCl, 20 mM NaCl, 10 mM Tris pH 7.5, 0.1% Triton), washed again with PBST and PBS, then fixed with ice-cold 4% formaldehyde PBS solution at room temperature for 10 min. […]

U-2 OS cells [2] = assay: Fragile telomeres in cells overexpressing FANCM variants; conditions: stable overexpression
From the text: as §1, §3
as §4, with “min. Coverslips were blocked with antibody-dilution buffer (20 mM Tris-HCl, pH 7.5, 2% (w/v) BSA, 0.2% (v/v) fish gelatin, 150 mM NaCl, 0.1% (v/v) Triton X-100 and 0.1% (w/v) sodium azide) and 0.1 mg/ml RNaseA for 30 min at 37° C.” for “min.”

U-2 OS cells [3] = assay: APB frequency and APB telomere intensity in cells overexpressing FANCM variants; conditions: overexpression
From the text: (a) Western immunoblotting of stable wild-type FANCM (FANCM+) or FANCM mutant overexpression in U-2 OS cells. […] (b) TRF analysis of U-2 OS cells overexpressing wild-type (FANCM+) or FANCM mutants. Gels were hybridized under native and denatured conditions with radiolabelled telomeric probes to detect the C-strand and G-strand. (c) Tukey boxplots of APB frequency (top panel) and mean APB telomere intensity (bottom panel) in U-2 OS cells overexpressing wild-type (FANCM+) or FANCM mutants. Out of 3 experiments, n=150 cells scored per variant, *p<0.05, **p<0.005, Mann-Whitney test.
as §2, §3
Indirect IF and telomere FISH were performed on both interphase nuclei and metaphase spreads. For interphase IF experiments, cells were grown on coverslips or LabTek chamber slides (Thermo Scientific). Slides were prepared as described in Sobinoff et al., 2017. Cells on coverslips were washed twice with PBS, permeabilized with KCM buffer (120 mM KCl, 20 mM NaCl, 10 mM Tris pH 7.5, 0.1% Triton), washed again with PBST and PBS, then fixed with ice-cold 4% formaldehyde PBS solution at room temperature for 10 min. Coverslips were blocked with antibody-dilution buffer (20 mM Tris-HCl, pH 7.5, 2% (w/v) BSA, 0.2% (v/v) fish gelatin, 150 mM NaCl, 0.1% (v/v) Triton X-100 and 0.1% (w/v) sodium azide) and 0.1 mg/ml RNaseA for 30 min at 37° C. Cells were incubated with primary antibodies (Supplementary Table 1) for 1 h at 37° C. or 2 h at room temperature, then incubated with 1:1,000 dilution of appropriate Alexa Fluor conjugated secondary antibodies (Thermo Scientific). Coverslips were rinsed with PBS then fixed with 4% (v/v) formaldehyde at room temperature prior to telomere FISH. Coverslips were subjected to a graded ethanol series (75% for 2 min, 85% for 2 min, and 100% for 2 min) and allowed to air-dry. […]

U-2 OS cells [4] = assay: C-circle assay in cells overexpressing FANCM variants; conditions: stable overexpression, compared to vector control
From the text: as §1, §2, §3
C-circles were amplified with Phi29 polymerase using dATP, dTTP and dGTP overnight. Products were dot blotted onto Biodyne B membranes (Pall) and pre-hybridised in PerfectHyb Plus (Sigma) for at least 30 min. Radiolabeled telomeric C-probe was then added and blots were hybridized overnight at 37° C. (Henson et al., 2009). Blots were washed with 0.5×SSC, 0.1% SDS three times for 5 min each then exposed to phosphor screen. Imaging was performed on the Typhoon FLA 7000 system (GE Healthcare) with a PMT of 750 V.

Substance	telomere dysfunction (metaphase-TIFs) (U-2 OS cells [1])	number of fragile telomeres (telomere fragility) (U-2 OS cells [2])	number of APBs (U-2 OS cells [3])	C-circle levels (U-2 OS cells [4])
MID: FANCM MID domain mutant (SEQ ID NO: 21) substituted at V749G/H751G	significantly increased	significantly increased	–	–
DM: double mutant FANCM with both the K117R substitution and the FF>AA double substitution (SEQ ID NO:35)	enhanced telomere dysfunction	–	greater increase in the number of APBs	significantly greater increase in C-circles
wild-type FANCM: wild type FANCM (SEQ ID NO: 2) stably overexpressed by lentivirus	significant decrease	significant decrease	–	significant decrease in C-circle generation
HhH: FANCM HhH domain mutant (SEQ ID NO: 28), deletion at amino acid residues 1971-2048	–	–	–	did not cause a change in C-circle levels
ERCC4: FANCM ERCC4 domain mutant (SEQ ID NO: 27), deletion at amino acid residues 1815-1922	–	–	–	did not cause a change in C-circle levels
